Measurements as given in patent publication US20050175597A1 (priority 2002, published 2005).

How the values were obtained:
Lactobacillus plantarum [1] = system: Lactobacillus plantarum; set-up: species or system mice; conditions: mouse, in vivo
[2] = system: Lactobacillus casei shirota; experiment: Lactobacillus casei shirota viable plate counts after SGF treatment with or without colostrum; conditions: L. casei shirota, no colostrum
Lactobacillus plantarum [3] = system: Lactobacillus plantarum

O=C([O-])O.[Na+] [sodium bicarbonate, Sodium bicarbonate]
survival of Lactobacillus plantarum (large intestine, FIG. 7) (Lactobacillus plantarum [1]): increased
survival of Lactobacillus plantarum at higher concentrations of protectant (Lactobacillus plantarum [1]): increased survival

Lactobacillus casei shirota [Lactobacillus + H2O]
reduction in Lactobacillus viability [2]: ≥ 10,000 fold

Lactobacillus plantarum [Lactobacillus + H2O]
reduction in Lactobacillus viability (Lactobacillus plantarum [3]): 1000 fold
